Results taken from PubChem BioAssay AID179 (DTP/NCI, 2004).
“And” between values parts separate entries of the source, which are not always exact repeats. Equal entries are not always repeated. The source made the active and inactive calls.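 The calls were made as follows: active = compounds giving half or more protection of infected cells from virus-caused growth loss, again on retest; inactive = the rest.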

Tested on: CEM cells HIV-1 protection, formazan growth assay
Assay: NCI AIDS Antiviral Assay
Conditions: for IC50: measured here: growth of uninfected CEM cells
Method in brief: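 Protection of CEM cells against HIV-1 was scored from cell growth (soluble formazan) across five concentrations, with parallel uninfected cells. Lack of protection may reflect toxicity.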

| SMILES | EC50 [µM] | IC50 | outcome |
| --- | --- | --- | --- |
| O=C(CC1(O)C(=O)Nc2c(Cl)cc(Cl)cc21)c1ccc(Br)cc1Br (centres undefined) | > 51.3 | 44.7 µM |  |
| O=C(Nc1nc2ncn(CCNCCn3cnc4nc(NC(=O)c5ccccc5)[nH]c(=O)c43)c2c(=O)[nH]1)c1ccccc1 | > 23.4 | > 23.4 µM |  |
| Cc1[nH]c(=O)nc2[nH][nH]c(=O)c12 |  |  | inactive |
| Cc1cc2ccc(N)nc2[nH]c1=O | > 200 | > 200 µM |  |
| CCN(CC)c1ccc(N=Nc2ccc(-c3nc4cccn(C)c-4n3)cc2)cc1 | > 7.41 | > 7.41 µM |  |
| Clc1ccc(/C=N\N2CCCCCC2)c(Cl)c1 |  |  | inactive |
| CCCCOC(=O)NC(Nc1ccc(S(N)(=O)=O)cc1)(C(F)(F)F)C(F)(F)F | > 200 | > 200 µM |  |
| O=C(c1ccc(Cl)cc1)c1cnc2nc(-c3ccccc3)c(-c3ccccc3)nn12 | > 1.78 | > 1.78 µM |  |
| Cn1c(=O)n(CC2CS2)c2ccccc21 (centres undefined) | > 1120 | 24.5 µM |  |
| CCCCCCCCCCCCCCCCCCSCC(COP(=O)(O)OP(=O)(O)O)OC(=O)CCCCCCCCCCCCCCC (centres undefined) | > 0.891 | > 0.891 µM |  |
| CC(=O)O[C@@H]1CC[C@@]2(C)C(CC[C@H]3[C@@H]4CC[C@H]([C@H](C)CCc5nc6ccc(C)cc6[nH]5)[C@@]4(C)CC[C@@H]32)C1 (some centres undefined) | > 200 | 16.6 µM |  |
| [N-]=[N+]=Nc1c(Cl)c(=O)n(-c2ccccc2)c2ccccc12 | > 200 | 29.5 µM |  |
| CC(C)C(/C=C/c1ccccc1)=N\NC(=O)N/N=C(/C=C/c1ccccc1)C(C)C | > 6.76 | > 6.76 µM |  |
| CSc1nc(=O)n(CCC#N)nc1SC | > 200 | 29.5 µM |  |
| O=[N+]([O-])c1ccc(C[P+](c2ccccc2)(c2ccccc2)c2ccccc2)cc1 | > 200 | 87.1 µM and 40.7 µM |  |
| Cc1c(C)c2cc3c(=O)ccoc3c(C)c2oc1=O | > 20.4 | > 20.4 µM |  |
| CC(=O)CC(=O)ON(C)C(=O)Cc1ccccc1 | > 1000 | > 1000 µM |  |
| C1OC2OCC1O2 | > 2450 | > 2450 µM |  |
| CCn1c(=O)[nH]c(=O)c2conc21 | > 1380 | 661 µM |  |
| O=c1c(-c2ccc3c(c2)OCO3)coc2cc(O)ccc12 | > 200 | > 200 µM |  |
| CC(=O)N=C1N(/C=C2\C(=O)Oc3ccccc3C2=O)C(=O)/C(=C/c2cccc([N+](=O)[O-])c2)N1C | > 100 | 97.7 µM |  |
| CCCCNC(=S)OCCC(C)CCCC(C)C (centres undefined) |  |  | inactive |

| SMILES | EC50 [µM] | IC50 | outcome |
| --- | --- | --- | --- |
| COC(=O)NC(Cc1ccccc1)NC(C)=O (centres undefined) | > 200 | > 200 µM |  |
| COc1cc2nncc(SC)c2cc1OC | > 91.2 | 72.4 µM |  |
| O=C1c2ccc(O)cc2OC(c2cc(O)c(O)c(O)c2)C1O (centres undefined) | > 200 | 11.7 µM |  |
| O=C(Cc1nc2ccc(C(=O)c3ccccc3)cc2[nH]c1=O)C(=O)Nc1ccccc1[N+](=O)[O-] | > 79.4 | 51.3 µM |  |
| C/C(O)=C(\C=N\C(=S)Nc1cccc(C(F)(F)F)c1)C(=O)Nc1ccccc1C | > 100 | 75.9 µM |  |
| N#Cc1sc2c(c1OC(=O)c1cccs1)c(=O)n(-c1ccccc1)c(=S)n2-c1ccccc1 | > 200 | 6.03 µM |  |
| O=C1CCC2=C(CCCC2=O)N1 | > 200 | > 200 µM |  |
| Oc1ccccc1C(c1cc2c(cc1O)OCO2)N1CCOCC1 (centres undefined) | > 200 | 11 µM |  |
| CCCc1cc(=O)oc2c3c(cc(OC)c12)O[C@H](C)[C@H](C)C3=O | > 200 | 47.9 µM |  |
| O=S(Cc1ccccn1)c1nc2ccccc2nc1-c1ccccc1 (centres undefined) | > 28.8 | > 28.8 µM |  |
| COc1ccc(Oc2cc(CC3c4cc(OC)c(OC)cc4CCN3C)c([N+](=O)[O-])cc2OC)cc1OC (centres undefined) |  |  | inactive |
| CC(=O)C1CC(C)=CCC12C(=O)Nc1ccccc12 (centres undefined) | > 195 | > 195 µM |  |
| N#CC1(C#N)C(c2ccccc2)C=CC12OCCCO2 (centres undefined) |  |  | inactive |
| BrC1=CC2C(C3C=CC2(Br)C32OCCO2)C12OCCO2 (centres undefined) | > 166 | > 166 µM |  |
| CCOC(=O)c1ccc(NC(=O)c2cccc3c(Nc4ccc(S(=O)(=O)Nc5cc(C)on5)cc4)c4ccccc4nc23)cc1 | > 200 | 4.57 µM |  |
| COCCCC(=O)NC(c1ccccc1)(c1ccccc1)c1ccccc1 | > 200 | > 200 µM |  |
| O=C(NCC(=O)N1CCCC1C(=O)OC(=O)C1CCCN1C(=O)CNC(=O)OCc1ccccc1)OCc1ccccc1 (centres undefined) | > 38 | 30.2 µM |  |
| N/C(=N\N=C\c1cccs1)NO | > 708 | > 708 µM |  |
| CC(=O)Nc1ccc(OC(C)(C)C)cc1 | > 1200 | > 1200 µM |  |
| CCOC(=O)C(=[N+]=[N-])C(=O)CN1C(=O)C2CC(C)=C(C)CC2C1O (centres undefined) | > 389 | > 389 µM |  |
| O=[N+]([O-])c1ccc(C2N3CCCCC3[C@H]3CCCCN23)cc1 (some centres undefined) | > 24 | > 24 µM |  |
| O=[N+]([O-])c1cccc(-c2csc(NNC3=NC/C(=C/c4ccc5c(c4)OCO5)S3)n2)c1 | > 200 | 117 µM |  |

| SMILES | EC50 [µM] | IC50 | outcome |
| --- | --- | --- | --- |
| CC1COB(c2ccccc2)OCC(C)N1CNC(=O)C1=C(O)C2(O)C(O)=C3C(=O)C4C(O)=CC=CC4C(C)(O)C3CC2C(N(C)C)C1=O (centres undefined) | 15.1 | 19.5 µM |  |
| O=C(O)/C=C\C(=O)Nn1c(Cc2ccc(Cl)cc2)n[nH]c1=O | > 200 | > 200 µM |  |
| CN(C)P(CCP(CCP(N(C)C)N(C)C)c1ccccc1)N(C)C | > 617 | > 617 µM |  |
| NC1=NS(=O)(=O)N=C(N)C1=NNc1cccc(Cl)c1 | > 832 | 138 µM |  |
| CCOC(=O)c1nc(SC)sc1NC(=O)c1ccc([N+](=O)[O-])cc1 | > 200 | > 200 µM |  |
| [N-]=[N+]=NCc1cccc(Nc2cc(=O)[nH]c(=O)[nH]2)c1 | 49 | > 200 µM |  |
| N#CN=C(N(Cc1ccccc1)Cc1ccccc1)N(Cc1ccccc1)Cc1ccccc1 | > 39.8 | > 39.8 µM |  |
| COc1ccc(N2C(=O)/C(=C/c3ccc(N(CCC#N)CCC#N)cc3C)N=C2/C=C\c2ccccc2)cc1 | > 14.1 | > 14.1 µM |  |
| COC(=O)[C@@H]1C2OC(C)(C)OC2CN1C(=O)OCc1ccccc1 (some centres undefined) |  |  | inactive |
| CC1(C)COC(c2c(-c3ccccc3)noc2CS(=O)c2ccccc2)=N1 (centres undefined) | > 100 | 42.7 µM |  |
| CCCCCCCCCCCCCC(=O)OCC1OC(n2cc(C)c(=O)[nH]c2=O)CC1N=[N+]=[N-] (centres undefined) | 0.00372 | 102 µM |  |
| CN(C)NC(=S)Nc1ccccc1Br | > 200 | > 200 µM |  |
| O=C1NC(=O)C(Cc2cccc(OCc3ccccc3)c2)C(=O)N1 | > 200 | > 200 µM |  |
| NC(=O)c1ncn(C2CCC(CP(=O)(O)O)C2)c1N (centres undefined) | > 200 | > 200 µM |  |
| CN(C)c1ccc(/C=C2/NC(=S)NC2=O)cc1 | > 200 | 20 µM |  |
| CN(C)c1ccc(/C=C2\C=Cc3ccccc32)cc1 |  |  | inactive |
| CCc1cccc(CC)c1NC(=O)CC1SC(N)=NC1=O (centres undefined) | > 427 | > 427 µM |  |
| c1ccc(Cc2nc(Cc3n[nH]c(Cc4ccccc4)n3)n[nH]2)cc1 | > 200 | > 200 µM |  |
| Clc1ccc(C2=CC(c3ccccc3)N3C(=N[C@H]4CCCC[C@@H]43)N2)cc1 (some centres undefined) | > 100 | 4.68 µM |  |
| NC(CSSCC(N)Cc1ccccc1)Cc1ccccc1 (centres undefined) | > 617 | 20.4 µM |  |
| O=C1NC2(CCN(CCc3ccccc3)CC2)Oc2ccccc21 | > 200 | 191 µM |  |
| Cc1ccc(OCCn2cc(Nc3ccccc3)c(=O)n(CCOc3ccc(C)cc3)c2=O)cc1 | > 200 | 174 µM |  |

| SMILES | EC50 [µM] | IC50 | outcome |
| --- | --- | --- | --- |
| COc1ccc(/C=N/Nc2nc(-c3cc4oc(=O)n(C)c4cc3Cl)cs2)cc1OC | > 11.7 | > 11.7 µM |  |
| O=c1[nH]c2cc([N+](=O)[O-])ccc2nc1/C=C(\O)c1ccc(Cl)cc1 | > 100 | 87.1 µM |  |
| COC(=O)C(C(=O)C(=O)Nc1ccccc1C#N)c1nc2ccc([N+](=O)[O-])cc2[nH]c1=O (centres undefined) | > 16.6 | > 16.6 µM |  |
| COc1ccc(OC)c(NC(=O)C(=O)Nn2c(=S)[nH]c3ccccc3c2=O)c1 | > 631 | 372 µM |  |
| CCCCCC=C(c1cc(C)c(OC)c(Br)c1)c1cc(C)c(OC)c(Br)c1 | > 200 | 15.5 µM |  |
| N#CC(C#N)=Cn1c(=S)[nH]c2ccc([N+](=O)[O-])cc21 | > 200 | 89.1 µM |  |
| C=CC12CCC(CC1)n1c(=O)n(C)c(=O)n12 | > 200 | > 200 µM |  |
| CCOC(=O)NC1CN2CCC1CC2 (centres undefined) | > 200 | > 200 µM |  |
| c1cncc(C2c3[nH]c4ccccc4c3CCN2CCCN2CCCCC2)c1 (centres undefined) | > 3.89 | > 3.89 µM |  |
| Cc1csc(=Nc2ccccc2)n1CCC(O)(P(=O)(O)O)P(=O)(O)O | > 200 | 9.55 µM |  |
| COC1OC(CO)C(NC2=N[C@@H]3[C@H](O2)[C@@H](O)[C@H](O)[C@]3(O)CO)C(O)C1O (some centres undefined) | > 50.1 | > 50.1 µM |  |
| Cc1cc(C)nc(NS(=O)(=O)c2ccc(NC(=O)c3ccccc3SC(=O)CCCC[n+]3ccccc3)cc2)n1 | 17 | 51.3 µM |  |
| CO[C@@]12[C@@H]3N[C@@H]3CN1C1=C(C(=O)C(N3CCCC3)=C(C)C1=O)[C@@H]2COC(N)=O | > 200 | 0.631 µM |  |
| O/N=C(/C(Cl)=C(Cl)Cl)C(Cl)Cl | > 200 | 33.1 µM |  |
| Cc1cccc(C2=C/C(=C(\SS/C(C(=O)c3ccc(OCC(=O)O)c(Cl)c3Cl)=C3\C=C(c4cccc(C)c4)SS3)C(=O)c3ccc(OCC(=O)O)c(Cl)c3Cl)SS2)c1 |  |  | inactive |
| O=c1[nH]c(N/N=C\C(O)C(O)C(O)CO)nc2ccccc12 (centres undefined) | > 200 | > 200 µM and 97.7 µM |  |
| CCCCCCCCCCCSSCCCCCCCCCCC | > 200 | > 200 µM |  |
| CCOC(=O)c1c(SC(=O)c2ccc(OC)cc2)n(-c2ccccc2)c(=S)n(-c2ccccc2)c1=O | > 200 | 28.2 µM |  |
| Cn1c(COC(=O)Nc2ccccc2)c(COC(=O)Nc2ccccc2)c2ccc3ccccc3c21 | > 200 | 0.339 µM |  |
| O=C1CCCC2=C1CC1=C(CCCC1=O)N2c1ccc(-c2ccccc2)cc1 |  |  | inactive |
| O=C1C(Cl)=C(Cl)C(=O)N1c1cccc(C(F)(F)F)c1 |  |  | inactive |
